pEC50: −log10 of the molar value.
Target: T1, AhR receptor (Homo sapiens, UniProt P35869)
T1 construct: expression of native (Human Hepatoma Huh-7) AhR receptor reporter gene cells; endogenous in cells; host or cells: Human hepatoma Huh-7 reporter cells (firefly luciferase under receptor-specific response elements)
T1 sequence (P35869 11-848): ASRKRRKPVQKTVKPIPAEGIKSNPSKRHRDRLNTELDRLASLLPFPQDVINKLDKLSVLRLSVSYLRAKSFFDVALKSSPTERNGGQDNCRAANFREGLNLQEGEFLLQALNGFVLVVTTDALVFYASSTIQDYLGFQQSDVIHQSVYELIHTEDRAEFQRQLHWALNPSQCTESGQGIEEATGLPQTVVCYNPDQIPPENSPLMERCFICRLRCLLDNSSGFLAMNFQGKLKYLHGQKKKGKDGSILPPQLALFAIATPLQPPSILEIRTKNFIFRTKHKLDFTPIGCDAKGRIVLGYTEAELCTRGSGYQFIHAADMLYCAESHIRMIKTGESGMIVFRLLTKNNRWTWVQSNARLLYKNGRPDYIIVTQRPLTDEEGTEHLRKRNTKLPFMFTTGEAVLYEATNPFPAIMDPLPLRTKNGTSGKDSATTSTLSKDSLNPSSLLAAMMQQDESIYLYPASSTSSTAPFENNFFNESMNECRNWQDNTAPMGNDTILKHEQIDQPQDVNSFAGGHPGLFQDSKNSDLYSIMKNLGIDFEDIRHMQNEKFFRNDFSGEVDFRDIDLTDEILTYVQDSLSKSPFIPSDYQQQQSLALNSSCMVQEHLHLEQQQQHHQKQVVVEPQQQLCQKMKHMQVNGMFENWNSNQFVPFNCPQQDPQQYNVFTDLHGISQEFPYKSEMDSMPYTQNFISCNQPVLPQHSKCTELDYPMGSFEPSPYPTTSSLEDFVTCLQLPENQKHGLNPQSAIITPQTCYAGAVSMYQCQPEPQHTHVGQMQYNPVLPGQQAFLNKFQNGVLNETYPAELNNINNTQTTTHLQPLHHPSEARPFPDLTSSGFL
Assay: AhR agonism assay (luciferase reporter gene cells)
Assay type: cell-based
Details: not given
Method: Assay Materials (plasmids): expression of native (Human Hepatoma Huh-7) AhR receptor reporter gene cells, the reporter vector includes functional firefly luciferase gene linked to upstream receptor-specific genetic response elements (GRE).
The AhR agonism assay comprises the following three steps:
1. Cell implantation: a suspension of AhR receptor cells was prepared in cell recovery medium (CRM; FBS containing 10% activated carbon). Then, the prepared suspension (100 μl) was dispensed into wells of a white 96-well culture plate.
2. Right before the beginning of the experiment, Master Stocks were diluted to “2× concentration” treatment media with appropriate compound screening media (CSM: FBS containing 10% activated carbon). The test compounds were subjected to gradient dilution with CSM medium containing 0.2% DMSO, so that the final concentration of DMSO in each experimental well for each treatment group was 0.1%. […] The experimental plate was placed in an incubator at 37° C. for 24 h.
3. Fluorescence detection and analysis: after completion of the incubation, the treatment media were discarded and 100 μL/well of luciferase detection reagent was added. The Ave RLU (average relative fluorescence intensity) of each well and the coefficient of variation for each experimental group were determined. The activity of AhR receptor with various concentrations of the test compounds was quantitatively determined using a ratio of Ave RLU^Test Cmpd of various concentrations of the test compounds in the experimental group to Ave RLU^Vehicle of the blank control group, and fold activation and EC50 were determined.
For data processing method, refer to J. Biomol.

Compound | pEC50
COC(=O)c1csc(C(=O)c2c[nH]c3ccccc23)c1 [Compound 15] | 4.00 to 5.00
COC(=O)c1csc(C(=O)c2cn(CO)c3ccccc23)n1 [Compound 37] | 6.00 to 9.00
COC(=O)c1ccc(C(=O)c2c[nH]c3ccccc23)nc1 [Compound 18] | 5.00 to 6.00
CC(C)c1nc(C(=O)c2c[nH]c3ccccc23)cs1 [Compound 9] | 6.00 to 9.00
COC(=O)c1nsc(C(=O)c2c[nH]c3ccccc23)n1 [Compound 8] | 5.00 to 6.00

Same assay, conditions: Human Hepatoma Huh-7 AhR reporter gene cells, 24 h incubation at 37° C., 0.1% DMSO; read-out: EC50

Compound | pEC50
N#Cc1csc(C(=O)c2c[nH]c3ccccc23)n1 [Compound 29] | 6.00 to 9.00
COC(=O)c1nnc(C(=O)c2c[nH]c3ccccc23)o1 [Compound 34] | 5.00 to 6.00
O=C(c1nc(-c2nnc[nH]2)cs1)c1c[nH]c2ccccc12 [Compound 36] | 6.00 to 9.00
O=C(c1nc(C2CC2)cs1)c1c[nH]c2ccccc12 [Compound 41] | 6.00 to 9.00
COC(=O)COCn1cc(C(=O)c2nc(C(=O)OC)cs2)c2ccccc21 [Compound 3] | 6.00 to 9.00
O=C(c1nc(-c2ccco2)cs1)c1c[nH]c2ccccc12 [Compound 40] | 6.00 to 9.00
COCCOCCOCCOCC(=O)OCC(=O)OCn1cc(C(=O)c2nc(C(=O)OC)cs2)c2ccccc21 [Compound 7] | 6.00 to 9.00
Nc1nc(-c2csc(C(=O)c3c[nH]c4ccccc34)n2)cs1 [Compound 44] | 6.00 to 9.00
O=C(c1nc(-c2cnccn2)cs1)c1c[nH]c2ccccc12 [Compound 39] | 6.00 to 9.00
COCCOCCOCCOCC(=O)OCn1cc(C(=O)c2nc(C(=O)OC)cs2)c2ccccc21 [Compound 6] | 6.00 to 9.00
COC(=O)C1CSC(C(=O)c2c[nH]c3ccc(OC)cc23)=N1 (centres unmarked) [Compound 19-1] | 6.00 to 9.00
COC(=O)c1c[nH]c(C(=O)c2c[nH]c3ccccc23)n1 [Compound 23] | 6.00 to 9.00
COC(=O)c1csc(Cc2c[nH]c3ccccc23)n1 [Compound 28] | 4.00 to 5.00
COC(=O)c1csc(C(=O)c2cn(COC(=O)[C@@H](N)C(C)(C)C)c3ccccc23)n1 [Compound 2-2] | 6.00 to 9.00
COC(=O)c1csc(C(=O)c2c[nH]c3ccc(OC)cc23)n1 [Compound 19-2] | 6.00 to 9.00
COCCOCCOCCOC(=O)n1cc(C(=O)c2nc(C(=O)OC)cs2)c2ccccc21 [Compound 5] | 6.00 to 9.00
O=C(c1nc(-c2nnn[nH]2)cs1)c1c[nH]c2ccccc12 [Compound 35] | 5.00 to 6.00
COC(=O)CNC(=O)c1csc(C(=O)c2c[nH]c3ccccc23)n1 [Compound 27] | 6.00 to 9.00
CC(C)c1cnc(C(=O)c2c[nH]c3ccccc23)s1 [Compound 10] | 4.00 to 5.00
COC(=O)c1csc(C(=O)c2cn(COC(=O)[C@@H](N)C(C)C)c3ccccc23)n1 [Compound 1-2] | 6.00 to 9.00
COC(=O)c1ccc(C(=O)c2c[nH]c3ccccc23)n1C [Compound 12] | 6.00 to 9.00
COC(=O)c1csc(C(=O)c2cn(C(=O)[C@@H](N)C(C)C)c3ccccc23)n1 [Compound 4-2] | 6.00 to 9.00
O=C(c1nc(-c2ccccn2)cs1)c1c[nH]c2ccccc12 [Compound 22] | 6.00 to 9.00

Second part, the compound after the results:

pEC50 | Compound
6.00 to 9.00 | COC(=O)c1csc(-c2csc(C(=O)c3c[nH]c4ccccc34)n2)n1 [Compound 32-2]
6.00 to 9.00 | COC(=O)c1csc(C(=O)c2cn(C3OC(COC(C)=O)C(OC(C)=O)C(OC(C)=O)C3OC(C)=O)c3ccccc23)n1 (centres unmarked) [Compound 38-2]
6.00 to 9.00 | COC(=O)[C@@H]1COC(c2csc(C(=O)c3c[nH]c4ccccc34)n2)=N1 [Compound 30-1]
6.00 to 9.00 | O=C(c1nc(-c2nccs2)cs1)c1c[nH]c2ccccc12 [Compound 31-2]
6.00 to 9.00 | O=C(c1nc(C2=NCCO2)cs1)c1c[nH]c2ccccc12 [Compound 33-1]
6.00 to 9.00 | CC(C)[C@H](NC(=O)OC(C)(C)C)C(=O)n1cc(C(=O)c2nc(-c3nccs3)cs2)c2ccccc21 [Compound 42-1]
5.00 to 6.00 | CO/N=C(\c1nc(C(=O)OC)cs1)c1c[nH]c2ccccc12 [Compound 25-2]
6.00 to 9.00 | O=C(c1nc(-c2ncco2)cs1)c1c[nH]c2ccccc12 [Compound 33-2]
6.00 to 9.00 | COC(=O)C1CSC(c2csc(C(=O)c3c[nH]c4ccccc34)n2)=N1 (centres unmarked) [Compound 32-1]
5.00 to 6.00 | COC(=O)c1csc(/C(=N\O)c2c[nH]c3ccccc23)n1 [Compound 26-2]
6.00 to 9.00 | O=C(c1nc(-c2c[nH]cn2)cs1)c1c[nH]c2ccccc12 [Compound 43-2]
6.00 to 9.00 | COC(=O)c1csc(C(=O)c2cn(C3OC(CO)C(O)C(O)C3O)c3ccccc23)n1 (centres unmarked) [Compound 38-4]
6.00 to 9.00 | COC(=O)c1csc(C(=O)c2cn(C3OC(COC(C)=O)C(O)C(O)C3O)c3ccccc23)n1 (centres unmarked) [Compound 38-3]
6.00 to 9.00 | COC(=O)c1csc(C(=O)c2cn(C3OC(COC(C)=O)C(OC(C)=O)C(OC(C)=O)C3OC(C)=O)c3ccccc23)n1 (centres unmarked) [Compound 38-1]
5.00 to 6.00 | COC(=O)c1csc(/C(=N/O)c2c[nH]c3ccccc23)n1 [Compound 26-1]
6.00 to 9.00 | CC(C)[C@H](N)C(=O)n1cc(C(=O)c2nc(-c3nccs3)cs2)c2ccccc21 [Compound 42-2]
5.00 to 6.00 | CO/N=C(/c1nc(C(=O)OC)cs1)c1c[nH]c2ccccc12 [Compound 25-1]
6.00 to 9.00 | O=C(c1nc(C2=NCCS2)cs1)c1c[nH]c2ccccc12 [Compound 31-1]
6.00 to 9.00 | COC(=O)c1coc(-c2csc(C(=O)c3c[nH]c4ccccc34)n2)n1 [Compound 30-2]
